# pEC50: −log10 of the molar value.
# Experiments:
# [1] = biological target: T1, human soluble guanylate cyclase alpha 1 and beta 1 subunits (sGC) (Homo sapiens, UniProt Q02108+Q02153); assay: sGC cellular activator assay (cGMP, HTRF); format: cell-based; conditions: CHO cells stably expressing human sGC alpha 1/beta 1, preincubated with 40 microM ODQ; cGMP readout; assay run with and without 50% human serum, Table 2 does not say which
# T1 construct: expressed in transfected cells; host or cells: Chinese hamster ovary (CHO) cells, stably transfected
# T1 sequence (Q02108 1-690): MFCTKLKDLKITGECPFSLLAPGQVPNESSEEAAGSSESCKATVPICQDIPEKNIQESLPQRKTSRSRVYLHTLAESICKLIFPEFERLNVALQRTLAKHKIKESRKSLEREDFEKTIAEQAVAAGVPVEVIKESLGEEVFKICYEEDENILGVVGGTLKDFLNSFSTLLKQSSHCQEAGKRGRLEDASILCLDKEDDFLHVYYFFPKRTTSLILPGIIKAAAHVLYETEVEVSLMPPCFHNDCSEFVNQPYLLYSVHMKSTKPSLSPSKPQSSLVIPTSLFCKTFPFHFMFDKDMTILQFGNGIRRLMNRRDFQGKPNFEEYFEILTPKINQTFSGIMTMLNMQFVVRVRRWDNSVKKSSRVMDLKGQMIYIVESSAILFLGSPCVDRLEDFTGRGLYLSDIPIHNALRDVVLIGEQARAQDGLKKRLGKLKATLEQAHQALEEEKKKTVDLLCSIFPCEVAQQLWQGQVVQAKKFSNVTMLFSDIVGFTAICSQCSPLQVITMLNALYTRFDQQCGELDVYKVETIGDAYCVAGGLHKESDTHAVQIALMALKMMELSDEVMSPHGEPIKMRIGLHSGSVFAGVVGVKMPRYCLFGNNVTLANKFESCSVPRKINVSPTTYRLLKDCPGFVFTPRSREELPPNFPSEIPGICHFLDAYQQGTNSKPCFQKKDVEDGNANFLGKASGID
# T1 sequence (Q02153 1-619): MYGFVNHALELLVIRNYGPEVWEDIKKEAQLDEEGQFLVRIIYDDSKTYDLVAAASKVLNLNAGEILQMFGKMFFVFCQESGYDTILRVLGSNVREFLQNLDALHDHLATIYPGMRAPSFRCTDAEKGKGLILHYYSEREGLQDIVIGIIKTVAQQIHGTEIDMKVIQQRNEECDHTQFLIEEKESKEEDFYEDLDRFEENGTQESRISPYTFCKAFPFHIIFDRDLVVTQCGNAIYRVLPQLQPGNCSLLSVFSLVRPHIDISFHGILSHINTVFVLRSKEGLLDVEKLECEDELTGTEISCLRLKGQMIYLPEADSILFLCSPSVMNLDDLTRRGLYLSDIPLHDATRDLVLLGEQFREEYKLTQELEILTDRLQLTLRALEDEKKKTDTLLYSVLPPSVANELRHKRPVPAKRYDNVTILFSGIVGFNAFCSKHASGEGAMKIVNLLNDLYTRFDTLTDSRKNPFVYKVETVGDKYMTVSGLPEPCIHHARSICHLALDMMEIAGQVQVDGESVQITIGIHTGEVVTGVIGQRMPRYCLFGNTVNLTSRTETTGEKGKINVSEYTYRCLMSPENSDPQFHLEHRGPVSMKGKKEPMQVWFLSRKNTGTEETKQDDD
# How it was run: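 First, CHO-sGC (human α1β1) cells get 1 h ODQ at 40 microM with IBMX and 0.1% BSA. Finally, cGMP is quantified by HTRF and EC50 computed.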
# [2] = Assessment of solubility (McIlvaine buffers, 24 h shake, UPLC-UV); format: physicochemical; conditions: kinetic from dmso stock
# How it was run: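 Compounds from 10 mM DMSO stocks were shaken for 24 h at room temperature in McIlvaine buffers at pH 2.2, 4.5 and 6.8 (2.5% v/v DMSO final), then filtered. Filtrates were quantified by UPLC-UV at 254 nm against a 50:50 acetonitrile/water reference assumed fully dissolved, as a single determination.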
SMILES,pEC50 [1],"solubility at 24 h ([2]; pH 2.2, aqueous buffer)","solubility at 24 h ([2]; pH 4.5, aqueous buffer)","solubility at 24 h ([2]; pH 6.8, aqueous buffer)"
COc1c(C(=O)O)cnn1-c1cccc(-c2cc(F)cc(F)c2OCc2ccc3c(c2)CCN(C2CCOCC2)C3)n1 [Compound 53],6.96,84 µg/mL,65 µg/mL,70 µg/mL
CCOc1c(C(=O)O)cnn1-c1cccc(-c2cccc(Cl)c2OCc2ccc3c(c2)CCN(C2CCOCC2)C3)n1 [Compound 54],6.96,100 µg/mL,78 µg/mL,75 µg/mL
CCOc1c(C(=O)O)cnn1-c1cccc(-c2cccc(Cl)c2OCc2ccc3c(c2)CCN(C2CCOC2)C3)n1 (stereo not drawn) [Compound 55],6.96,98 µg/mL,48 µg/mL,49 µg/mL
CCOc1c(C(=O)O)cnn1-c1cccc(-c2cccc(Cl)c2OCc2ccc3c(c2)CCN(C(C)CO)C3)n1 (stereo not drawn) [Compound 56],6.09,87 µg/mL,66 µg/mL,77 µg/mL
CCOc1c(C(=O)O)cnn1-c1cccc(-c2cccc(Cl)c2OCc2ccc3c(c2)CCN(C2CCC(F)(F)CC2)C3)n1 [Compound 57],7.62,95 µg/mL,47 µg/mL,51 µg/mL
CCOc1c(C(=O)O)cnn1-c1cccc(-c2cccc(Cl)c2OCc2ccc3c(c2)CCN(CCOC)C3)n1 [Compound 58],7.09,111 µg/mL,85 µg/mL,89 µg/mL
COc1c(C(=O)O)cnn1-c1cccc(-c2cccc(C)c2OCc2ccc3c(c2)CCN(C2CCOC(C)(C)C2)C3)n1 (stereo not drawn) [Compound 61],7.23,130 µg/mL,110 µg/mL,99 µg/mL
COc1c(C(=O)O)cnn1-c1cccc(-c2cccc(C)c2OCc2ccc3c(c2)CCN(C2CC(C)OC(C)C2)C3)n1 (stereo not drawn) [Compound 62],7.62,110 µg/mL,88 µg/mL,91 µg/mL
COc1c(C(=O)O)cnn1-c1cccc(-c2cccc(F)c2OCc2ccc3c(c2)CCN(C2CCOCC2)C3)n1 [Compound 63],7.09,110 µg/mL,90 µg/mL,92 µg/mL
CCOc1c(C(=O)O)cnn1-c1cccc(-c2cccc(C)c2OCc2ccc3c(c2)CCN(C2CCOCC2C)C3)n1 (stereo not drawn) [Compound 64],7.15,100 µg/mL,66 µg/mL,66 µg/mL
CCOc1c(C(=O)O)cnn1-c1cccc(-c2cccc(C)c2OCc2ccc3c(c2)CCN(C2CC(C)OC(C)C2)C3)n1 (stereo not drawn) [Compound 65],7.25,110 µg/mL,84 µg/mL,74 µg/mL
CCOc1c(C(=O)O)cnn1-c1cccc(-c2cccc(C)c2OCc2ccc3c(c2)CCN(C2CCOC(C)(C)C2)C3)n1 (stereo not drawn) [Compound 66],6.96,63 µg/mL,54 µg/mL,55 µg/mL
CCOc1c(C(=O)O)cnn1-c1cccc(-c2cccc(C)c2OCc2ccc3c(c2)CCN(C2CC(C)(C)OC(C)(C)C2)C3)n1 [Compound 67],6.49,90 µg/mL,76 µg/mL,78 µg/mL
CCOc1c(C(=O)O)cnn1-c1cccc(-c2cccc(C)c2OCc2ccc3c(c2)CCN(CC2CCOC2)C3)n1 (stereo not drawn) [Compound 68],7.42,85 µg/mL,71 µg/mL,74 µg/mL
CCOc1c(C(=O)O)cnn1-c1cccc(-c2cccc(C)c2OCc2ccc3c(c2)CCN(CC2CCOCC2)C3)n1 [Compound 69],7.21,91 µg/mL,77 µg/mL,80 µg/mL
CCOc1c(C(=O)O)cnn1-c1cccc(-c2cccc(C)c2OCc2ccc3c(c2)CCN(C(C)CS(C)(=O)=O)C3)n1 (stereo not drawn) [Compound 70],6.74,86 µg/mL,57 µg/mL,64 µg/mL
CCOc1c(C(=O)O)cnn1-c1cccc(-c2cccc(C)c2OCc2ccc3c(c2)CCN(C2CCOC2C)C3)n1 (stereo not drawn) [Compound 71],7.17,94 µg/mL,75 µg/mL,78 µg/mL
"COc1c(C(=O)O)cnn1-c1cccc(-c2cccc(C)c2OCc2ccc3c(c2)CCN(CC2CC2(F)F)C3)n1 (stereo not drawn) [Compound 72, 1-(6-{2-[2-(2,2-difluoro-cyclopropylmethyl)-1,2,3,4-tetrahydro-isoquinolin-6-ylmethoxy]-3-methyl-phenyl}-pyridin-2-yl)-5-methoxy-1H-pyrazole-4-carboxylic acid]",7.77,44 µg/mL,46 µg/mL,67 µg/mL
COc1c(C(=O)O)cnn1-c1cccc(-c2cccc(C)c2OCc2ccc3c(c2)CCN(C2CC(C)(C)OC(C)(C)C2)C3)n1 [Compound 73],6.60,86 µg/mL,67 µg/mL,71 µg/mL
COc1c(C(=O)O)cnn1-c1cccc(-c2cccc(C)c2OCc2ccc3c(c2)CCN(CCS(C)(=O)=O)C3)n1 [Compound 74],7.14,110 µg/mL,83 µg/mL,95 µg/mL
COc1c(C(=O)O)cnn1-c1cccc(-c2cccc(C)c2OCc2ccc3c(c2)CCN(C2C4CCOC4C2(C)C)C3)n1 (stereo not drawn) [Compound 75],7.64,120 µg/mL,93 µg/mL,90 µg/mL
CCOc1c(C(=O)O)cnn1-c1cccc(-c2cccc(C)c2OCc2ccc3c(c2)CCN(C2CCOCC2)C3)n1 [Compound 77],7.51,96 µg/mL,83 µg/mL,87 µg/mL
CCOc1c(C(=O)O)cnn1-c1cccc(-c2cccc(C)c2OCc2ccc3c(c2)CCN(C2CCOC(C)C2)C3)n1 (stereo not drawn) [Compound 78],7.32,100 µg/mL,86 µg/mL,89 µg/mL
CCOc1c(C(=O)O)cnn1-c1cccc(-c2cccc(C)c2OCc2ccc3c(c2)CCN(C2CCOC(CC)C2)C3)n1 (stereo not drawn) [Compound 79],7.48,100 µg/mL,87 µg/mL,89 µg/mL
CCOc1c(C(=O)O)cnn1-c1cccc(-c2cccc(C)c2OCc2ccc3c(c2)CCN(CC2CCOC(C)(C)C2)C3)n1 (stereo not drawn) [Compound 80],7.35,110 µg/mL,94 µg/mL,95 µg/mL
COc1c(C(=O)O)cnn1-c1cccc(-c2cccc(C)c2OCc2ccc3c(c2)CCN(C2CCOCC2OC)C3)n1 (stereo not drawn) [Compound 81],6.39,100 µg/mL,84 µg/mL,79 µg/mL
COc1c(C(=O)O)cnn1-c1cccc(-c2cccc(C)c2OCc2ccc3c(c2)CN(CC2CC(F)(F)C2)C3)n1 [Compound 82],8.10,120 µg/mL,100 µg/mL,97 µg/mL
COc1c(C(=O)O)cnn1-c1cccc(-c2cccc(C(F)(F)F)c2OCc2ccc3c(c2)CCN(C2CCOCC2)C3)n1 [Compound 83],7.54,110 µg/mL,88 µg/mL,95 µg/mL
COc1c(C(=O)O)cnn1-c1cccc(-c2cccc(C(F)(F)F)c2OCc2ccc3c(c2C)CCN(C2CCOCC2)C3)n1 [Compound 84],8.05,110 µg/mL,86 µg/mL,89 µg/mL
COc1c(C(=O)O)cnn1-c1cccc(-c2cccc(C)c2OCc2ccc3c(c2)CN(C2COC2)C3)n1 [Compound 85],7.66,120 µg/mL,96 µg/mL,110 µg/mL

# Reference: US8906904B2, “Alkoxy pyrazoles as soluble guanylate cyclase activators” (Boehringer Ingelheim International GmbH, priority 2012, dated 2014)
